From patent publication US5760092A, “Allocolchinones and uses thereof” (Brandeis University, priority 1996, dated 1998)
Values joined by “and” are separate entries in the source; they are usually repeats but may differ in a detail not shown here. Equal entries are not always repeated. “Also recorded” adds a separate entry of the source. Where two headings read alike, the source gives them in different places.

How the values were obtained:
[1] = tested on: tubulin; type: biochemical, calf; conditions: in vitro; read-out: LC50 (inhibition of microtubule assembly in vitro)
[2] = tested on: RXF-393 renal cancer cells; assay: cells; conditions: Homo sapiens; for GI50: RXF 393; for activity at 10 µM: RXF 393, read-out: Percent Growth, log10 conc -5.0; for activity at 1 µM: RXF 393, read-out: Percent Growth, log10 conc -6.0; for activity at 0.1 µM: RXF 393, read-out: Percent Growth, log10 conc -7.0; for activity at 0.01 µM: RXF 393, read-out: Percent Growth, log10 conc -8.0
[3] = tested on: MOLT-4 leukemia cells
[4] = tested on: OVCAR-8 ovarian cancer cells
[5] = tested on: RXF-393 renal cancer cells
[6] = tested on: A498 renal cancer cells; assay: cells; conditions: Homo sapiens
[7] = tested on: HS 578T breast cancer cells
[8] = tested on: SF-268 CNS cancer cells
[9] = tested on: HOP-62 non-small cell lung cancer cells
[10] = tested on: OVCAR-3 ovarian cancer cells
[11] = tested on: SNB-19 CNS cancer cells
[12] = tested on: HOP-62 non-small cell lung cancer cells; assay: cells; conditions: Homo sapiens
[13] = tested on: A498 renal cancer cells
[14] = tested on: SF-295 CNS cancer cells; assay: cells; conditions: Homo sapiens
[15] = tested on: MCF7/ADR-RES breast cancer cells; assay: cells; type: cell-based
[16] = tested on: SK-OV-3 ovarian cancer cells; assay: cells; conditions: Homo sapiens
[17] = tested on: SF-539 CNS cancer cells
[18] = tested on: CAKI-1 renal cancer cells; assay: cells; conditions: Homo sapiens
[19] = tested on: HS 578T breast cancer cells; assay: cells; conditions: Homo sapiens
[20] = tested on: HOP-92 non-small cell lung cancer cells
[21] = tested on: SK-OV-3 ovarian cancer cells
[22] = tested on: SF-295 CNS cancer cells
[23] = tested on: HOP-92 non-small cell lung cancer cells; assay: cells; conditions: Homo sapiens
[24] = tested on: OVCAR-3 ovarian cancer cells; assay: cells; conditions: Homo sapiens
[25] = tested on: tumor cell lines; assay: cells; type: cell-based
[26] = tested on: SNB-75 CNS cancer cells
[27] = tested on: U251 CNS cancer cells

## COc1cc2c(c(OC)c1OC)-c1ccc(C(C)=O)cc1C(N)CC2 (centres unmarked) [7-Amino-allocolchinone]
[1]
  IC50: 3000 nM

## COc1cc2c(c(OC)c1OC)-c1ccc(OC)c(=O)cc1[C@@H](NC(C)=O)CC2 [Colchicine, reference compound]
[2]
  GI50: < 10 nM
  activity at 10 µM: 13%
  activity at 1 µM: 9%
  activity at 0.1 µM: 7%
  activity at 0.01 µM: 48%
[3]
  GI50: 35.6 nM
[3]; log10 conc -4.0, 100 µM
  Percent Growth: 1%
[3]; log10 conc -5.0
  Percent Growth: 0%
[3]; log10 conc -6.0, 1 µM
  Percent Growth: 1%
[3]; log10 conc -8.0
  Percent Growth: 98%
[4]; log10 conc -4.0, 100 µM
  Percent Growth: -39%
[4]; log10 conc -8.0
  Percent Growth: 99%

## CCCC(=O)NC1CCc2cc(OC)c(OC)c(OC)c2-c2ccc(C(C)=O)cc21 (centres unmarked)
[5]
  TGI: > 100 µM
[5]; log10 conc -5.0, 10 µM
  Percent Growth: 26%
[5]; log10 conc -6.0, 1 µM
  Percent Growth: 40%
[5]; log10 conc -8.0, 0.01 µM
  Percent Growth: 29%
[6]; A498
  GI50: 10.4 nM
[6]; A498, read-out: LC50
  CC50: 50 µM
[2]
  GI50: < 10 nM
  activity at 10 µM: 30%
  activity at 1 µM: 39%
  activity at 0.1 µM: 36%
  activity at 0.01 µM: 18%
[2]; RXF 393, read-out: LC50
  CC50: > 100 µM
[7]
  TGI: > 100 µM
[7]; log10 conc -5.0, 10 µM
  Percent Growth: 41%
[7]; log10 conc -6.0, 1 µM
  Percent Growth: 43%
[7]; log10 conc -7.0, 0.1 µM
  Percent Growth: 31%
[8]
  GI50: < 10 nM
[8]; human, sf-268 cns cancer cells
  CC50: > 100 µM
[8]; log10 conc -5.0, 10 µM
  Percent Growth: 14% and 25%
[8]; log10 conc -6.0, 1 µM
  Percent Growth: 18% and 30%
[8]; log10 conc -7.0, 0.1 µM
  Percent Growth: 29% and 31%
[8]; log10 conc -8.0, 0.01 µM
  Percent Growth: 43% and 32%
[9]
  TGI: > 100 µM
[9]; log10 conc -4.0, 100 µM
  Percent Growth: 34%
[9]; log10 conc -5.0, 10 µM
  Percent Growth: 44%
[9]; log10 conc -6.0, 1 µM
  Percent Growth: 34%
[9]; log10 conc -7.0, 0.1 µM
  Percent Growth: 25% and 46%
[3]
  GI50: < 10 nM
  TGI: > 100 µM
[3]; human, molt-4 leukemia cells
  CC50: > 100 µM
[3]; log10 conc -4.0, 100 µM
  Percent Growth: 2% and 6%
[3]; log10 conc -5.0
  Percent Growth: 9%
[3]; log10 conc -6.0, 1 µM
  Percent Growth: 12% and 8%
[3]; log10 conc -7.0, 0.1 µM
  Percent Growth: 12% and 8%
[3]; log10 conc -8.0, 0.01 µM
  Percent Growth: 16% and 9%
[1]
  IC50: 600 nM
[10]
  TGI: < 10 nM
[10]; log10 conc -4.0, 100 µM
  Percent Growth: -30%
[10]; log10 conc -5.0
  Percent Growth: -21%
[10]; log10 conc -7.0, 0.1 µM
  Percent Growth: -12%
[10]; log10 conc -8.0, 0.01 µM
  Percent Growth: -16% and -19%
[11]
  GI50: < 10 nM
[11]; human, snb-19 cns cancer cells
  CC50: > 100 µM
[11]; log10 conc -4.0, 100 µM
  Percent Growth: 19%
[11]; log10 conc -6.0, 1 µM
  Percent Growth: 13% and 26%
[11]; log10 conc -8.0, 0.01 µM
  Percent Growth: 18% and 25%
[12]; HOP-62
  GI50: < 10 nM
[12]; HOP-62, read-out: LC50
  CC50: > 100 µM
[12]; HOP-62, read-out: Percent Growth, log10 conc -4.0
  activity at 100 µM: 43%
[12]; HOP-62, read-out: Percent Growth, log10 conc -5.0
  activity at 10 µM: 41%
[12]; HOP-62, read-out: Percent Growth, log10 conc -6.0
  activity at 1 µM: 36%
[13]
  GI50: < 10 nM
[13]; human, a498 renal cancer cells
  CC50: > 100 µM
[13]; log10 conc -6.0, 1 µM
  Percent Growth: -40%
[13]; log10 conc -8.0
  Percent Growth: 13%
[14]; SF-295
  GI50: < 10 nM
[14]; SF-295, read-out: LC50
  CC50: > 100 µM
[14]; SF-295, read-out: Percent Growth, log10 conc -4.0
  activity at 100 µM: 21%
[14]; SF-295, read-out: Percent Growth, log10 conc -5.0
  activity at 10 µM: 10%
[15]; Homo sapiens, MCF7
  GI50: < 10 nM
[15]; log10 conc -4.0, 100 µM
  Percent Growth: -22% and -23%
[16]; SK-OV-3
  GI50: < 10 nM
[16]; SK-OV-3, read-out: LC50
  CC50: > 100 µM
[17]
  GI50: < 10 nM
  TGI: 12.9 nM
[17]; human, sf-539 cns cancer cells
  CC50: > 100 µM
[17]; log10 conc -4.0, 100 µM
  Percent Growth: -8% and 1%
[17]; log10 conc -5.0, 10 µM
  Percent Growth: -13% and -12%
[17]; log10 conc -6.0, 1 µM
  Percent Growth: -8% and -16%
[17]; log10 conc -7.0, 0.1 µM
  Percent Growth: -13% and -11%
[17]; log10 conc -8.0
  Percent Growth: 2%
[17]; log10 conc -8.0, 0.01 µM
  Percent Growth: -8%
[18]; CAKI-1
  GI50: < 10 nM
[18]; CAKI-1, read-out: LC50
  CC50: > 100 µM
[19]
  GI50: < 10 nM
[19]; read-out: LC50
  CC50: > 100 µM
[19]; read-out: Percent Growth, log10 conc -4.0
  activity at 100 µM: 6%
[19]; read-out: Percent Growth, log10 conc -5.0
  activity at 10 µM: 26%
[19]; read-out: Percent Growth, log10 conc -6.0
  activity at 1 µM: 26%
[19]; read-out: Percent Growth, log10 conc -7.0
  activity at 0.1 µM: 22%
[20]
  GI50: < 10 nM
  TGI: > 100 µM
[21]; log10 conc -5.0
  Percent Growth: -19%
[21]; log10 conc -7.0, 0.1 µM
  Percent Growth: 3%
[22]
  TGI: > 100 µM
[22]; log10 conc -4.0, 100 µM
  Percent Growth: 19%
[22]; log10 conc -5.0, 10 µM
  Percent Growth: 12%
[23]; HOP-92
  GI50: 17.6 nM
[23]; HOP-92, read-out: LC50
  CC50: > 100 µM
[24]; OVCAR-3
  GI50: < 10 nM
[24]; OVCAR-3, read-out: LC50
  CC50: > 100 µM
[4]
  GI50: < 10 nM
  TGI: > 10 nM
[4]; human, ovcar-8 ovarian cancer cells
  CC50: > 100 µM
[25]
  GI50: < 10 nM
  activity in the NCI screen: activity similar to 7-acetamidoallocolchinone; also recorded: active
[26]
  GI50: < 10 nM
[26]; human, snb-75 cns cancer cells
  CC50: > 100 µM
[26]; log10 conc -4.0, 100 µM
  Percent Growth: 18%
[26]; log10 conc -8.0
  Percent Growth: -28%
[27]
  GI50: < 10 nM
[27]; human, u251 cns cancer cells
  CC50: > 100 µM
[27]; log10 conc -5.0
  Percent Growth: 5%
[27]; log10 conc -6.0, 1 µM
  Percent Growth: 16% and 7%
[27]; log10 conc -7.0, 0.1 µM
  Percent Growth: -16%
[27]; log10 conc -8.0, 0.01 µM
  Percent Growth: 1% and 4%
